Measured values as given in US8771680B2, “Topical co-enzyme Q10 formulations and methods of use” (University of Miami, priority 2004, dated 2014).

What was measured:
[1] = of cancer patients having progressive disease before treatment; cited from earlier work
[2] = tested on: human melanoma cell line (SKMEL28); assay: Proliferation of melanoma cell line in in vitro culture (cell counting); format: cell-based
Description: (§1) Retrieve Q10 stock from −20° C. storage and weigh out approximately 4.4 mg. Transfer Q10 into a 25 mL centrifuge tube. Add 1 mL 2-propanol to centrifuge tube. Vortex and dip in hot water bath (55° C.) to promote dissolution. Add 9 mL of media to centrifuge tube. Vortex and dip in hot water bath (55° C.) if necessary to create a homogenous solution. […] Make serial dilutions to treatment concentrations.
(§2) After subculture (per subculturing cells protocol described above), pipet the desired volume suspension of cells to count (0.25-1 mL) into Coulter Counter Vial (Beckman, Inc.) using an automatic pipette. Insure that the Beckman Coulter® Z1 Cell and Particle Counter is clean by using Coulter CLENZ (Beckman, Inc., Fullerton, Calif.) to flush. Flush apparatus once with Isoton II Diluent. Add Isoton II Diluent to vial containing cells for a total volume of 10 mL. Use output mode of apparatus to count cells twice to ensure accuracy. Average counts together and calculate total cell number per volume.
(§3) Acclimate reagents to 37° C. in water bath. Make stock solution of Q10 as per protocol described above for creating a homogenous solution of Q10 in media. Perform serial dilutions to desired concentrations. Place 2 mL media into respective wells. Subculture flasks as per protocol described above for subculturing cells. […]

[3] = tested on: squamous carcinoma cells; assay: Proliferation of squamous carcinoma cells in in vitro culture; format: cell-based; conditions: 48 hour in vitro culture
Description: as §1, §2, §3

[4] = tested on: human neonatal fibroblasts; assay: Proliferation of neonatal fibroblasts in in vitro culture; format: cell-based; conditions: 48 hour in vitro culture
Description: as §1, §2, §3

[5] = tested on: human neonatal keratinocytes; assay: Proliferation of neonatal keratinocytes in in vitro culture; format: cell-based; conditions: 48 hour in vitro culture
Description: as §1, §2, §3

[6] = tested on: breast adenocarcinoma cell line (MCF-7); assay: Proliferation of breast adenocarcinoma cell line MCF-7 in in vitro culture; format: cell-based
Description: as §1, §2, §3

[7] = tested on: human breast adenocarcinoma cell line (SK-BR-3); assay: Proliferation of breast adenocarcinoma cell line SK-BR-3 in in vitro culture; format: cell-based
Description: as §1, §2, §3

[8] = tested on: human breast adenocarcinoma cell line (MDA-MB-468); assay: Proliferation of breast adenocarcinoma cell line MDA-MB-468 in in vitro culture; format: cell-based
Description: as §1, §2, §3

[9] = tested on: human breast adenocarcinoma cell line (BT-20); assay: Proliferation of breast adenocarcinoma cell line BT-20 in in vitro culture; format: cell-based
Description: as §1, §2, §3

[10] = tested on: human hepatocellular carcinoma cell line (Hep 3B); assay: Proliferation of hepatocellular carcinoma cell line Hep 3B in in vitro culture; format: cell-based
Description: as §1, §2, §3

[11] = tested on: human osteosarcoma cell line (143B); assay: Proliferation of osteosarcoma cell line 143B in in vitro culture; format: cell-based
Description: as §1, §2, §3

[12] = tested on: human prostatic adenocarcinoma cell line (PC-3); assay: Proliferation of prostatic adenocarcinoma cell line PC-3 in in vitro culture; format: cell-based
Description: as §1, §2, §3

[13] = tested on: human prostatic adenocarcinoma cell line (PC-3); assay: Apoptosis analysis by JC-1 stain (mitochondrial polarization, flow cytometry); format: cell-based; conditions: PC-3 cells, 0.2 mM Q10, 24 h
Description: FIG. 28 is a graph showing the effect of CoQ10 on mitochondrial polarization (an indicator of apoptosis) of a human prostatic adenocarcinoma cell line (PC-3) in a 24 hour in vitro culture. PC-3 cell cultures were treated with Q10 at 0.05, 0.1 and 0.2 mM concentrations for 24 h and then treated with JC-1, at 10 microgram/ml., for 30 min. Uptake and levels of green fluorescence was measured in a flow cytometer, FL1 (green fluor.).
Apoptosis was measured using a mitochondrial membrane dye JC-1, 5,5′,6,6′-tetrachloro-1,1′,3,3′-tetraethyl-benzimidazolylcarbocyanine chloride (Molecular Probe, Eugene, Oreg.). Treatments consisting of DMEM-F12 media supplemented with 1×PSA, 5% FBS and 0, 50, 100, and 200 μM concentrations of coenzyme Q10 were prepared in 60×15 mm tissue culture dishes (Costar-Cambride, Mass.). PC-3 cells were seeded at 500,000 cells per dish and incubated for 24 hours. The cells were trypsinized using 2 mL trypsin-EDTA and subjected to centrifugation at 2,500 rpm for 8 minutes. They were resuspended in 1 mL of Ham's F12 medium lacking serum and phenol red (Cascade Biologics, Inc-Portland, Oreg.) and promptly placed on ice. A 1 mg/ml stock solution of JC-1 was prepared using sterile DMSO and 10 μL was added to each cell suspension while gently vortexing. […] The samples were analyzed by flow cytometry for changes in uptake of fluorescent dye. […]

[14] = tested on: SK-MEL28 tumors; assay: Effect of topical formulation of Coenzyme Q10 on SK-MEL28 tumors in mice; format: in vivo
Description: Subculture flasks as per the cell subculturing protocol described above. After aspirating supernatant, combine pellets from each flask diluted slightly with PBS with a 5 mL pipette. Dilute final cell suspension to contain approximately ten million cells per 100 μL. Transfer cell suspension to micro-centrifuge tubes (2 mL). Place in ice immediately and leave in ice until injected. Anesthetize mice via an intraperitoneal injection with 0.3 cc Aventin. Inoculate each animal subcutaneously with 0.1 cc cell suspension per site. Transfer any remaining cells into a 15 mL centrifuge tube. Dilute to 10 mL with medium. Centrifuge at 2500 RPM for 8 minutes. Aspirate supernatant. Add 10 mL media to centrifuge tube. Create a homogenous cell suspension by pipetting and vortexing. Seed cells in a T75 flask to ensure experimental cell viability.
Melanoma tumors were induced in mice by SK-MEL28 injection into the subcutaneous layer. The animal study consisted of both a control and treatment group each containing four mice. The mice were inoculated with two tumors and the graph of FIG. 14 represents the resulting mean mass for the tumors in each mouse. A topical formulation of Coenzyme Q10 (A 1.0% and 1.5% formulation was tested) was applied to the tumors in the treatment group daily for a period of 30 days. After which, the tumors were excised and the mass was determined. […]

[15] = tested on: skin cancer cells (SK-Mel28); assay: Apoptosis assay (Annexin-VPE) in skin cancer cells; format: cell-based, human; conditions: culture of skin cancer cells
Description: (§4) Cell lines used in the assay were SK-Mel28 and nFIB. Cells (SK-Mel28 and nFIB) were seeded (5×10^4 cells/well) into wells containing either solely medium or medium with treatment and placed in an incubator at 37° C., 5% CO2, and under humidified conditions for 48 hours. Each condition was performed in duplicate and was subjected to the following protocol:
(§5) Apoptosis Analysis as Per Protocol of BD Pharmingen Annexin-VPE Protocol
(§6) Reagents include Annexin V-PE (BD Pharmingen, San Diego, Calif.), 7-AAD (BD Pharmingen, San Diego, Calif.), binding buffer (10×: 0.1 M Hepes/NaOH, 1.4 M NaCl, 25 mM CaCl2) [diluted to 1× (9 mL PBS and 1 mL binding buffer) for use in experiment] (BD Pharmingen, San Diego, Calif.), Trypsin-EDTA (Gibco, Grand Island, N.Y.), and desired Media.
(§7) Add 0.5 mL trypsin to each well, remove trypsin after approximately 10 seconds, and add 0.5 mL trypsin to each well. Place wells in an incubator, observe level of detachment under microscope after 4 minutes, and gently tap sides and bottom to aid in detachment. When cells detach, neutralize with 0.5 mL serum-supplemented medium. Transfer cell solution to centrifuge tubes, centrifuge cells at 2000 RPM for 5 minutes, aspirate supernatant, resuspend in 6 mL PBS, and split 6 mL into three centrifuge tubes (2 mL each). […]

[16] = tested on: normal cells (nFIB); assay: Apoptosis assay (Annexin-VPE) in normal cells; format: cell-based, human; conditions: culture of normal cells
Description: as §4, §5, §6, §7

For `NC(=O)c1nnn(Cc2cc(Cl)c(C(=O)c3ccc(Cl)cc3)c(Cl)c2)c1N` [CAI, carboxyamidotriazole], the disease stabilization [1] is listed as 49%.
With `COC1=C(OC)C(=O)C(C/C=C(\C)CC/C=C(\C)CC/C=C(\C)CC/C=C(\C)CC/C=C(\C)CC/C=C(\C)CC/C=C(\C)CC/C=C(\C)CC/C=C(\C)CCC=C(C)C)=C(C)C1=O` [CoQ10, Coenzyme Q10] the proliferation ([2]; SKMEL28, 36 hour in vitro culture) was “reduces the proliferation”, the proliferation ([2]; SKMEL28, 48 hour in vitro culture) was “reduces the proliferation” and the proliferation [3] was “reduces the proliferation”. The proliferation [4] was “increases the proliferation”, the proliferation [5] was “increases the proliferation” and the proliferation ([6]; MCF-7, 48 hour in vitro culture) was “reduces the proliferation”. For the same compound, the proliferation ([6]; MCF-7, 72 hour in vitro culture) was “reduces the proliferation”, the proliferation ([7]; SK-BR-3, 48 hour in vitro culture) was “reduces the proliferation” and the proliferation ([7]; SK-BR-3, 72 hour in vitro culture) was “reduces the proliferation”. The proliferation ([8]; MDA-MB-468, 48 hour in vitro culture) was “reduces the proliferation”, the proliferation ([8]; MDA-MB-468, 72 hour in vitro culture) was “reduces the proliferation” and the proliferation ([9]; BT-20, 48 hour in vitro culture) was “reduces the proliferation”. The proliferation ([9]; BT-20, 72 hour in vitro culture) was “reduces the proliferation”, the proliferation ([10]; 48 hour in vitro culture) was “reduces the proliferation” and the proliferation ([10]; 72 hour in vitro culture) was “reduces the proliferation”. The proliferation ([11]; 48 hour in vitro culture) was “reduces the proliferation”, the proliferation ([11]; 72 hour in vitro culture) was “reduces the proliferation” and the proliferation ([12]; PC-3, 48 hour in vitro culture) was “reduces the proliferation”. For the same compound, the proliferation ([12]; PC-3, 72 hour in vitro culture) was “reduces the proliferation”, the “green fluorescence of JC-1 (mitochondrial polarization, an indicator of apoptosis)” value [13] was “significant increase” and the “Average tumor mass decreased as compared to the control” value ([14]; 1.0% CoQ10 topically for 30 days) was 52.3%. For the same compound, the “Average tumor mass decreased as compared to the control” value ([14]; 1.5% CoQ10 topically for 30 days) was 54.0%, the rate of apoptosis [15] was “increase the rate of apoptosis” and the rate of apoptosis [16] was “but not normal cells”.
